Experimental data published in patent EP0333005A1, “Light-sensitive dialkoxybenzenediazonium compound, method for its preparation and its use” (priority 1988, dated 1989).

Assay: Solubility in isopropanol/formic acid
Type: physicochemical
Conditions: Isopropanol/Ameisensäure (9:1), 20 °C
Experimental: So beträgt die Löslichkeit in der Form des 2,5-Diethoxy-4-thio(4′-methylphenyl)benzoldiazonium-sulfoisophthalats in Isopropanol/Ameisensäure (9:1) bei 20 °C 7,3 g/l, wogegen die entsprechende erfindungsgemäße Verbindung der Formel I sich zu 12,6 g/l bei 20 °C löst. Bei den bekannten Sulfoisophtalaten müssen daher zur besseren Lösung Löslichkeit verleihende Verbindungen zugesetzt werden.

Row | Structure (SMILES) | Löslichkeit | Löslichkeit (listed as entsprechende erfindungsgemäße Verbindung der Formel I)
1 | CCOc1cc(Sc2ccc(C)cc2)c(OCC)cc1[N+]#N [2,5-Diethoxy-4-thio(4′-methylphenyl)benzoldiazonium-sulfoisophthalat, reference compound] | 7,3 g/l | 
2 | CCOc1cc(Sc2ccc(C)cc2)c(OCC)cc1[N+]#N [Beispiel 1, 2,5-Diethoxy-4-thio(4′-methylphenyl)benzoldiazonium-sulfosalicylat] |  | 12,6 g/l
